Common to all, as to type: biochemical
For one test, the target named is T1, TYK2 (Homo sapiens, UniProt P29597).
T1 construct: purchased Carna Biosciences
Put plainly: TYK2 microfluidic kinase assay (Caliper EZ Reader II, FAM labeled peptide substrate). Particulars: (2.5 nM), 1 mM ATP; Table 2; read-out: IC50 TYK2 (2.5 nM) (1 mM ATP). As to the method: (§1) Compounds were tested against JAK1, JAK2, JAK2V617F and TYK2.
(§2) Assay Formats: JAK activity was determined in the reaction buffer 50 mM HEPES, 0.01% Brij35, 10 mMMgCl2, 2 mMDTT by a microfluidic assay. The phosphorylation of a FAM labeled peptide substrate was monitored in the Caliper EZ Reader II (Perkin Elmer). The assay condition for each batch of enzyme (Carna Biosciences) was optimized to obtain 10% conversion rate of peptide substrate.
(§3) The test compounds were dissolved in DMSO to a stock concentration of 10 mM. 3-fold serially diluted compounds with top concentration of 5 μM were pre-incubated with JAK1, JAK2, JAK2V617F or TYK2 for 10 min at ambient temperature. The final DMSO concentration of assay mixture was 1%. FAM labeled peptide substrate (final concentration […]) and ATP (1 mM concentration) were sequentially added to initiate the kinase reaction at 28° C. The reaction was stopped by adding 50 mMEDTA. The reaction time for JAK1, JAK2, JAK2V617F and TYK2 was 120 min, 20 min, 30 min and 10 min, respectively.
(§4) The well in the test plate without enzyme was defined as 100% inhibition. And the well without compound but with equivalent DMSO was defined as no inhibition. The percent inhibition was calculated by the following formula. % Inhibition=(Conversionmax−Conversionsample)/(Conversionmax−Conversionmin)*100Conversionmax means the conversion rate in the positive well without addition of compound Conversionmin means the conversion rate in the well without addition of enzyme Conversionsample means the conversion rate of test compounds
(§5) The dose-response (percent inhibition) curve was plotted and IC50 values were determined by GraphPad software.

The next test deals with T2, JAK2V617F (Homo sapiens, UniProt O60674, V617F).
T2 construct: purchased Carna Biosciences
The experiment in a line: JAK2V617F microfluidic kinase assay (Caliper EZ Reader II, FAM labeled peptide substrate). Particulars: (2.5 nM), 1 mM ATP; Table 2; read-out: IC50 J2V617F (2.5 nM) (1 mM ATP). As to the method:
as §1, §2, §3, §4, §5

A further test has as its target T3, JAK1 (Homo sapiens, UniProt P23458).
T3 construct: purchased Carna Biosciences
The experiment in a line: JAK1 microfluidic kinase assay (Caliper EZ Reader II, FAM labeled peptide substrate). Particulars: (5 nM), 1 mM ATP; Table 2; read-out: IC50 JAK1 (5 nM) (1 mM ATP). As to the method:
as §1, §2, §3, §4, §5

The next test has as its target T4, JAK2 (Homo sapiens, UniProt O60674).
T4 construct: purchased Carna Biosciences
The experiment in a line: JAK2 microfluidic kinase assay (Caliper EZ Reader II, FAM labeled peptide substrate). Particulars: (0.25 nM), 1 mM ATP; Table 2; read-out: IC50 JAK2 (0.25 nM) (1 mM ATP). As to the method: as §1, §2, §3, §4, §5

SMILES strings stand for the structures. A value given as a limit tells only on which side of the number the result lay.

T4 sequence (O60674 whole entry): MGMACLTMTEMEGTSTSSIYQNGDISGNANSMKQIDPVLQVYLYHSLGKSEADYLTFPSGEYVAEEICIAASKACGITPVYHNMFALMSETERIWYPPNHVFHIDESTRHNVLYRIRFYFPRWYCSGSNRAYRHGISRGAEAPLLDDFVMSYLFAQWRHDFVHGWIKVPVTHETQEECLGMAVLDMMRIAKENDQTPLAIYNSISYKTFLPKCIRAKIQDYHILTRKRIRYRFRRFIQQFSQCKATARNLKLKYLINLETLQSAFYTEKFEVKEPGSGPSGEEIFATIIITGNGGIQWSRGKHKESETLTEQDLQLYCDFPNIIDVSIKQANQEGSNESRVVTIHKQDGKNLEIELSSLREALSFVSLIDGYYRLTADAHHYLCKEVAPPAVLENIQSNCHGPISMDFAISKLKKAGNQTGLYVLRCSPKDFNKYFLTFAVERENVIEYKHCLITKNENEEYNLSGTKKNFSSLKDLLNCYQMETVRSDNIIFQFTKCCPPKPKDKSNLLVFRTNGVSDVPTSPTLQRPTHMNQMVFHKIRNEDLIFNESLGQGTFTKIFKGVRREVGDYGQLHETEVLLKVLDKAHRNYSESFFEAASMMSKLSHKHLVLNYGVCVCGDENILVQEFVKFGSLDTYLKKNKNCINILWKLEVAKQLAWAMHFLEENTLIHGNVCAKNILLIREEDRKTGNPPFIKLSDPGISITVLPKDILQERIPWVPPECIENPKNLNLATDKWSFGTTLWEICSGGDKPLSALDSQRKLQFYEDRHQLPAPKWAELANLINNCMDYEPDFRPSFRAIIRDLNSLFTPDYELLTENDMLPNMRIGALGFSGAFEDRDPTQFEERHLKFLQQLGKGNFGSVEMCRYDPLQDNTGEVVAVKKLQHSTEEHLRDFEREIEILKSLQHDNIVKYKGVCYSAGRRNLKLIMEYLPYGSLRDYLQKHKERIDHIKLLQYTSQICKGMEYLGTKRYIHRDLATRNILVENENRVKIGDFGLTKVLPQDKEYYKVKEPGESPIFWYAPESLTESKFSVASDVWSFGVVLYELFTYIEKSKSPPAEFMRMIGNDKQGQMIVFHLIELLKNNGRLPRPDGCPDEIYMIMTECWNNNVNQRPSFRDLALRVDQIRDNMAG
T3 sequence (P23458 whole entry): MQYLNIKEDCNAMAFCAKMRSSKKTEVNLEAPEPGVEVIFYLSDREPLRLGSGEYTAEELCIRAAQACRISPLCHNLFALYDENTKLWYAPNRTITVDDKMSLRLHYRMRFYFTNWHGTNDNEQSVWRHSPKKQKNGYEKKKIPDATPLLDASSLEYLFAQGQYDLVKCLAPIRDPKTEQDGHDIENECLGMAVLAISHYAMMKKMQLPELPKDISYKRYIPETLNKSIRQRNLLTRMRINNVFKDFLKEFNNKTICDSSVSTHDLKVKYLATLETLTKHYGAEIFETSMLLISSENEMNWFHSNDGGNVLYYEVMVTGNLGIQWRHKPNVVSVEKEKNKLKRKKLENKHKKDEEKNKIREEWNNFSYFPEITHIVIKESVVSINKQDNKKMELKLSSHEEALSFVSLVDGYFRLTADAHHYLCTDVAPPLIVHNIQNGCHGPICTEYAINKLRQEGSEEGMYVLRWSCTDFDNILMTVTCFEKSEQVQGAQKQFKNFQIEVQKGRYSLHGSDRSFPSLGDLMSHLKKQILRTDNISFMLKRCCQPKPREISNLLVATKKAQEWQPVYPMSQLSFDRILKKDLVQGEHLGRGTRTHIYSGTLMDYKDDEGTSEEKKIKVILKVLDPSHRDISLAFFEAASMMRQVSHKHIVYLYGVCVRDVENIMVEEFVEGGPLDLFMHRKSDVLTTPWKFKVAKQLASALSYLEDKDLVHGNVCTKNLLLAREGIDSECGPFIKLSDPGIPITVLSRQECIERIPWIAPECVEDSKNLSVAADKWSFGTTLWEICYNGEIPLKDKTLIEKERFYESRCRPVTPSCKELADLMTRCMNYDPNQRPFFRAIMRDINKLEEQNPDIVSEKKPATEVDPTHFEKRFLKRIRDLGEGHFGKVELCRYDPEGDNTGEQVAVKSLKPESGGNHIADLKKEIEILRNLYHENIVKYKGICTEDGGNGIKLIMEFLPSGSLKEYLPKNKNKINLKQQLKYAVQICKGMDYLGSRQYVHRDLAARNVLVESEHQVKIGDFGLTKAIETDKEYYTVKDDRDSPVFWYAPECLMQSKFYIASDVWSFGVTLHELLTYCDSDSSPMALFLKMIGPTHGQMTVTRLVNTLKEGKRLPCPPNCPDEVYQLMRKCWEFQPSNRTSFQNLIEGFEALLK
T1 sequence (P29597 whole entry): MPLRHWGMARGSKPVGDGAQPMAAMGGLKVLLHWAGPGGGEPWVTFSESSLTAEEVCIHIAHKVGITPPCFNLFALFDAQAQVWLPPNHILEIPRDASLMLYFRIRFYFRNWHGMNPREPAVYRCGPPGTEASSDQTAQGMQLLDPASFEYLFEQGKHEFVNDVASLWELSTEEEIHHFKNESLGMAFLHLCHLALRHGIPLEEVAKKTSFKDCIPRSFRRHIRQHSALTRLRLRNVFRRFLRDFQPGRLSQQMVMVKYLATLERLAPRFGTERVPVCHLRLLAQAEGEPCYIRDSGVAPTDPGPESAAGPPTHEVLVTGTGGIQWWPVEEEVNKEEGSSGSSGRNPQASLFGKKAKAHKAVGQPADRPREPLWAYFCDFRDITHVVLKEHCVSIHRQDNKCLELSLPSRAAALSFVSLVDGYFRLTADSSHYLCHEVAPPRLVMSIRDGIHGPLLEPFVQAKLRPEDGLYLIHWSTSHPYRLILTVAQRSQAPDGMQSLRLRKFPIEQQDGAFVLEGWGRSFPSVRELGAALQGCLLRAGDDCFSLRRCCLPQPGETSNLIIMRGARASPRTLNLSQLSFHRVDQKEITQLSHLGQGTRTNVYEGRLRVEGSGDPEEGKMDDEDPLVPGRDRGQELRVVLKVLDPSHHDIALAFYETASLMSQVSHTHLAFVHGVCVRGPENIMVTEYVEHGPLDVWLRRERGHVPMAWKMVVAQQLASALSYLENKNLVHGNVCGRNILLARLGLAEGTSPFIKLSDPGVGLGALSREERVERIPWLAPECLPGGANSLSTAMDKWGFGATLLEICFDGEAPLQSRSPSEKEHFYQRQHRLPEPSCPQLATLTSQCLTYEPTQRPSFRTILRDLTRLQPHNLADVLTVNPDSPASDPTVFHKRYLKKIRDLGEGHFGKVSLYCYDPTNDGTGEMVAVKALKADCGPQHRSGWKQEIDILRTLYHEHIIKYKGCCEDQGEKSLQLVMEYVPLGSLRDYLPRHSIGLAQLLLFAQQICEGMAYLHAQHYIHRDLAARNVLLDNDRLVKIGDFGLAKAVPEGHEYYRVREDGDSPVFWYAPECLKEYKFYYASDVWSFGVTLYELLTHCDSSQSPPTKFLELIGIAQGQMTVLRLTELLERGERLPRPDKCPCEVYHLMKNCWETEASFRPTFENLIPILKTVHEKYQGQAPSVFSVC
T2 sequence (O60674 whole entry V617F): as the sequence (O60674 whole entry) above, with V617F counted along it

On to `Cc1cnc(Nc2cnn(C3CC3)c2)nc1-c1ccc(OCC2(C#N)CCC2)cc1` [Example 3, 1-((4-(2-((1-cyclopropyl-1H-pyrazol-4-yl)amino)-5-methylpyrimidin-4-yl)phenoxy)methyl)cyclobutane-carbonitrile], for which the IC50 on TYK2 is 21.9 nM; on JAK2V617F it was 28.1 nM; on JAK1, 8.86 nM.

In the case of `Cc1cnc(Nc2cnn(C3CCOCC3)c2)nc1-c1ccc(OCC2(C#N)CC2)nc1` [Example 14, 1-(((5-(5-methyl-2-((1-(tetrahydro-2H-pyran-4-yl)-1H-pyrazol-4-yl)amino)pyrimidin-4-yl)pyridin-2-yl)oxy)methyl)cyclopropanecarbonitrile], the IC50 at TYK2 is 351 nM; on JAK2V617F, 163 nM; at JAK1 it was 202 nM.

As to `N#CC1(CNc2ccc(-c3nc(Nc4cnn(C5CCNCC5)c4)ncc3Cl)cc2)CC1` [Example 44, 1-(((4-(5-chloro-2-((1-(piperidin-4-yl)-1H-pyrazol-4-yl)amino)pyrimidin-4-yl)phenyl)amino)methyl)cyclopropane carbonitrile], the concentration for half-maximal inhibition (IC50) at JAK2 amounted to 1.46 nM; at TYK2 it was 173 nM; at JAK1, 35.3 nM.

Regarding `Cc1cnc(Nc2cnn(C3CC3)c2)nc1-c1ccc(OCC(C)(C)C#N)c(F)c1` [Example 4, 3-(4-(2-((1-cyclopropyl-1H-pyrazol-4-yl)amino)-5-methylpyrimidin-4-yl)-2-fluorophenoxy)-2,2-dimethylpropanenitrile], the IC50 is 0.425 nM at JAK2, less than 1.25 nM at TYK2, less than 1.25 nM on JAK2V617F and less than 2.5 nM at JAK1.

For the compound `COCCn1cc(Nc2ncc(C)c(-c3ccc(OCC4(C#N)CC4)c(F)c3)n2)cn1` [Example 21, 1-((2-fluoro-4-(2-((1-(2-methoxyethyl)-1H-pyrazol-4-yl)amino)-5-methylpyrimidin-4-yl)phenoxy)methyl)cyclopropane-carbonitrile], the IC50 on JAK2 was less than 0.25 nM; on TYK2 it was less than 1.25 nM; at JAK2V617F it was less than 1.25 nM; at JAK1, 7.31 nM.

With `Cc1cnc(Nc2cnn(C)c2)nc1-c1ccc(OCCC#N)cc1` [Example 41, 3-(4-(5-methyl-2-((1-methyl-1H-pyrazol-4-yl)amino)pyrimidin-4-yl)phenoxy)propanenitrile], the figures for the IC50 on JAK2, on TYK2 and at JAK1 were 32.3 nM, 64.7 nM and 19.6 nM, respectively.

For the compound `Cc1cnc(Nc2cnn(C3CC3)c2)nc1-c1ccc(NCC(C)(C)C#N)c(F)c1` [Example 37, 3-((4-(2-((1-cyclopropyl-1H-pyrazol-4-yl)amino)-5-methylpyrimidin-4-yl)-2-fluorophenyl)amino)-2,2-dimethylpropanenitrile], the figures for the IC50 at JAK2, at TYK2 and on JAK1 were 0.741 nM, less than 1.25 nM and 14.5 nM, respectively.

Regarding `Cc1cnc(Nc2cnn(C3CC3)c2)nc1-c1ccc(OCC2(C#N)CC2)c(F)c1` [Example 5, 1-((4-(2-((1-cyclopropyl-1H-pyrazol-4-yl)amino)-5-methylpyrimidin-4-yl)-2-fluorophenoxy)methyl)cyclopropane-carbonitrile], the IC50 is 3.26 nM at TYK2, less than 1.25 nM on JAK2V617F and 3.32 nM at JAK1.

In the case of `Cc1cnc(Nc2cnn(C3CCOCC3)c2)nc1-c1ccc(OCC2(C#N)CC2)c(F)c1` [Example 6, 1-((2-fluoro-4-(5-methyl-2-((1-(tetrahydro-2H-pyran-4-yl)-1H-pyrazol-4-yl)amino)pyrimidin-4-yl)phenoxy)methyl)cyclopropane-carbonitrile], the IC50 at TYK2 is less than 1.25 nM; at JAK2V617F, less than 1.25 nM; at JAK1 it was 7.42 nM.

With `Cc1cnc(Nc2cnn(C)c2)nc1-c1ccc(OCCC#N)c(F)c1` [Example 12, 3-(2-fluoro-4-(5-methyl-2-((1-methyl-1H-pyrazol-4-yl)amino)pyrimidin-4-yl)phenoxy)propanenitrile], the IC50 on JAK2 is 32.3 nM; at TYK2 it was 64.7 nM; on JAK1, 19.6 nM.

For the compound `Cc1cnc(Nc2cnn(C(C)C(F)(F)F)c2)nc1-c1ccc(OCC(C)(C)C#N)c(F)c1` (centres unmarked) [Example 40, 3-(2-fluoro-4-(5-methyl-2-((1-(1,1,1-trifluoropropan-2-yl)-1H-pyrazol-4-yl)amino)pyrimidin-4-yl)phenoxy)-2,2-dimethylpropanenitrile], the results for the IC50 on JAK2, on TYK2 and on JAK1 were 0.654 nM, 1.78 nM and less than 2.5 nM, respectively.

Consider `Cc1cnc(Nc2cnn(C3CC3)c2)nc1-c1ccc(OCC2(C#N)CC2)nc1` [Example 11, 1-(((5-(2-((l-cyclopropyl-1H-pyrazol-4-yl)amino)-5-methylpyrimidin-4-yl)pyridin-2-yl)oxy)methyl)cyclopropanecarbonitrile], for which the IC50 on TYK2 was determined as 218 nM; at JAK2V617F it was 138 nM; at JAK1 it was 65.1 nM.

Turning to `Cc1cnc(Nc2cnn(C3CCN(C)CC3)c2)nc1-c1ccc(OCC(C)(C)C#N)c(F)c1` [Example 18, 3-(2-fluoro-4-(5-methyl-2-((1-(1-methylpiperidin-4-yl)-1H-pyrazol-4-yl)amino)pyrimidin-4-yl)phenoxy)-2,2-dimethylpropanenitrile], the IC50 was 0.427 nM at JAK2, less than 1.25 nM at TYK2 and less than 2.5 nM on JAK1.

With `Cc1cnc(Nc2cnn(C3CC3)c2)nc1-c1ccc(NCC2(C#N)CC2)cc1` [Example 42, 1-(((4-(2-((1-cyclopropyl-1H-pyrazol-4-yl)amino)-5-methylpyrimidin-4-yl)phenyl)amino)methyl)cyclopropane carbonitrile], the 50% inhibitory concentration (IC50) at JAK2 was 27.4 nM; at TYK2, 102 nM; on JAK1, 19.2 nM.

As for `Cc1cnc(Nc2cnn(C3CCNCC3)c2)nc1-c1ccc(OCC(C)(C)C#N)c(F)c1` [Example 39, 3-(2-fluoro-4-(5-methyl-2-((1-(piperidin-4-yl)-1H-pyrazol-4-yl)amino)pyrimidin-4-yl)phenoxy)-2,2-dimethylpropanenitrile], the results for the IC50 on JAK2, on TYK2 and on JAK1 were 0.377 nM, less than 1.25 nM and less than 2.5 nM, respectively.

Turning to `CC(C)(C#N)COc1ccc(-c2nc(Nc3cnn(C4CC4)c3)ncc2Cl)cc1` [Example 32, 3-(4-(5-chloro-2-((1-cyclopropyl-1H-pyrazol-4-yl)amino)pyrimidin-4-yl)phenoxy)-2,2-dimethylpropanenitrile], the IC50 was 0.9 nM at JAK2, 106 nM at TYK2 and 28.9 nM at JAK1.

For `Cc1cnc(Nc2cnn(C3CCN(C)CC3)c2)nc1-c1ccc(NCC2(C#N)CC2)cc1` [Example 43, 1-(((4-(5-methyl-2-((1-(1-methylpiperidin-4-yl)-1H-pyrazol-4-yl)amino)pyrimidin-4-yl)phenyl)amino)methyl)cyclopropane carbonitrile], the IC50 turned out to be 3.12 nM on JAK2, 98.4 nM at TYK2 and 26.8 nM at JAK1.

As for `Cc1cnc(Nc2cnn(C3CCN(C)CC3)c2)nc1-c1ccc(OCC2(C#N)CC2)c(F)c1` [Example 20, 1-((2-fluoro-4-(5-methyl-2-((1-(1-methylpiperidin-4-yl)-1H-pyrazol-4-yl)amino)pyrimidin-4-yl)phenoxy)methyl)cyclopropane-carbonitrile], the IC50 is 0.251 nM on JAK2, less than 1.25 nM at TYK2 and less than 2.5 nM at JAK1.

For `Cc1cnc(Nc2cnn(C3CCOCC3)c2)nc1-c1ccc(OCC(C)(C)C#N)c(F)c1` [Example 7, 3-(2-fluoro-4-(5-methyl-2-((1-(tetrahydro-2H-pyran-4-yl)-1H-pyrazol-4-yl)amino)pyrimidin-4-yl)phenoxy)-2,2-dimethylpropanenitrile], the results for the IC50 on TYK2, at JAK2V617F and at JAK1 were less than 1.25 nM, less than 1.25 nM and less than 2.5 nM, respectively.

Regarding `Cc1cnc(Nc2cnn(C)c2)nc1-c1ccc(OCC(C)(C)C#N)cc1` [Example 38, 2,2-dimethyl-3-(4-(5-methyl-2-((1-methyl-1H-pyrazol-4-yl)amino)pyrimidin-4-yl)phenoxy)propanenitrile], the IC50 at JAK2 worked out at 1.09 nM; at TYK2, 2.62 nM; at JAK1, 7.49 nM.

Turning to `Cn1cc(Nc2ncc(Cl)c(-c3ccc(OCC(C)(C)C#N)cc3)n2)cn1` [Example 29, 3-(4-(5-chloro-2-((1-methyl-1H-pyrazol-4-yl)amino)pyrimidin-4-yl)phenoxy)-2,2-dimethylpropanenitrile], the IC50 on JAK2 was found to be 3.4 nM; on TYK2, 41.4 nM; at JAK1 it was 14.1 nM.

Source of the values: US12024503B2, “Benzethers and anilines of pyrazolyl-amino-pyrimidinyl derivatives, and compositions and methods thereof” (LYNK PHARMACEUTICALS CO. LTD., priority 2019, dated 2024).
